The results in this text go back to patent publication US10030103B2, “Stable helical ionic polypeptides” (The Board of Trustees of the University of Illinois, priority 2010, dated 2018).

Data set [1] is described as follows: Circular dichroism (CD) analysis of polypeptide conformation in aqueous solution. Type of data set: physicochemical.
Method: CD measurements were carried out on a JASCO J-700 CD spectrometer in a quartz disc with a light path length of 1 cm at 0.01-0.1 mg/mL in DI water at room temperature or under conditions otherwise indicated.
The CD study was performed on a JASCO J-700 or on a J-720 CD spectrometer. Polymer samples were prepared at concentrations of 0.01-0.1 mg/mL at pH 3 unless otherwise specified. The solution was placed in a quartz cell with light path of 0.2 cm. The mean residue molar ellipticity of each polymer was calculated based on the measured apparent ellipticity, the molar concentration of polymer and the m.w. of the repeating unit. The CD experiments were carried out at room temperature unless otherwise specified. For temperature-dependency study, the temperature of the sample chamber which hosts the quartz cell was controlled by a water bath (from 4° C. to 70° C.).
The samples were equilibrated at corresponding temperature for at least 10 min before the CD measurements. For the sample preparations, the polymers were dissolved in DI water or in a solution containing NaCl, urea or methanesulfonic acid (MSA). For the pH-dependency study, the pH of the polymer solution was tuned by the addition of a concentrated HCl or NaOH solution.
The CD study was performed on a JASCO J-700 and J-720 CD spectrometer. Polymer samples were prepared at a concentration of 0.05 mg/mL in general unless otherwise specified. The solution was placed in a quartz disc with light path of 0.5 cm. Mean residue molar ellipticity was calculated based on the ellipticity obtained, concentration of polymer and the molar weight of the repeating unit.
The CD study was performed on a JASCO J-700 and J-720 CD spectrometer. The polymer samples were prepared at concentrations of 0.01-0.1 mg/mL in general unless otherwise specified. The solution was placed in a quartz cell with a path length of 0.5 cm. […] For the helix-temperature dependency study, the temperature of the sample chamber where the quartz cell was placed was controlled by a water bath (from 4° C. to 70° C.). […]
In data set [2] the test system is DHSα E. coli. Briefly: Inhibition of bacterial growth in Luria broth (OD650). The class given is cell-based. Conditions: up to 100 μg/mL, seven hours, 37° C. The procedure:
Luria broth (1×) was prepared containing known concentrations of the three polymers between 0 μg/mL and 100 μg/mL and dispensed (200 μL aliquots) in triplicate into the wells of a clear polystyrene 96-well plate. Separate wells containing the antibiotic kanamycin at 50 μg/mL were also prepared as a control. The wells were then inoculated with DHSα E. coli and left to grow at 37° C. with agitation. After seven hours, the plate was removed and the absorbance of 650 nm light was measured for each well (OD650). In general, as bacterial growth was inhibited, the resulting OD650 decreased. The average OD650 was then plotted for each sample (FIG. 50).

The test system of data set [3] is COS-7 cells. Briefly: In vitro transfection of COS-7 cells with polymer/DNA complexes (pCMV-Luc, luciferase expression). Conditions: listed as PVBLG40-1. The class given is cell-based. The procedure: DNA/polymer complexes were prepared at room temperature by dissolving DNA (0.35 μg) in 150 mM NaCl, 20 mM HEPES (175 μL). An equal volume of 25-kDa branched PEI, lipofectamine 2000 or PVBLGn-X in 150 mM NaCl, 20 mM HEPES was added to achieve the desired weight ratio. The final complexes were incubated at room temperature for 15 min before further use. […] The transfection medium was replaced with fresh serum-supplemented growth medium 4 h post-transfection.
Luciferase expression was quantified 24 h post-transfection using the Promega Bright-Glo luciferase assay system (Promega, Madison, Wis.). Luciferase activity was measured in relative light units (RLU) using a PerkinElmer plate reader with luminescence capabilities (Waltham, Mass.). Results were normalized to total cell protein using the Pierce BCA protein assay kit (Rockford, Ill.). Transfections were performed in triplicate.

Turning to poly-L-lysine [(PLL)60], the Helical content in data set [1] (Table 9-2, (−[θ]222 + 3000)/39,000) is 0%.

“Poly(γ-(4-aminoethylthiopropoxyl)-benzyl-L-glutamate) [(PAOBLG-AET)10]”: the “pH dependence of −[θ]222 / helical conformation” value in data set [1] (pH range as stated in the value) was “remained unchanged when the solution's pH was increased from 1 to 8”.

For the substance poly(L-lysine) [PLL75], in data set [1] (aqueous solution, pH 1), the “conformation by CD” value is “completely random coil conformation”. As for “poly(γ-(4-(1-hexanol-6-aminomethyl))benzyl-L-glutamate) [PVBLG-1]”, the antimicrobial properties entry in data set [2] was “Neither PVBLGn-1 nor PVBLGn-8 displayed antimicrobial properties”.

“poly(γ-(4-(1-hexanol-6-aminomethyl))benzyl-L-glutamate) [(PVBLG-1)40]”: the “transfection efficiency” value in data set [3] is recorded as “on par with 25-kDa branched polyethylenimine (PEI)”.
